# In patent US8188222B2, “High molecular weight derivative of nucleic acid antimetabolite” (priority 2006, dated 2012):
# Counter-ions that a name gives are not always drawn.
# Legend:
# [1] = system: mouse colon cancer, Colon26; assay: Antitumor effect against tumor-bearing mouse (2); type: in vivo; settings: once intravenously, dose 160 in terms of gemcitabine hydrochloride, average ± SD
# Source text: A tumor mass of mouse colon cancer, Colon26, which had been subcutaneously subcultured in a mouse was cut into a block having an edge of about 2 mm at each side, and was transplanted under the skin of a mouse using a trocar. On the 7th day after tumor transplantation, the compound of Example 11, the compound of Example 14 and the compound of Example 17, dissolved in a 5% glucose injection solution and gemcitabine hydrochloride as a control drug dissolved in physiological saline were respectively administered once intravenously at the doses indicated in Table 3. The tumor volumes on the day of initiation of administration, and on the 7th day and 26th day after the initiation of administration were calculated by the above-described equation, and the relative tumor volumes on the day of initiation of administration and on the 7th day and 26th day after the initiation of administration were determined.
# [2] = system: mouse colon cancer, Colon26; assay: Antitumor effect against tumor-bearing mouse (1); type: in vivo; settings: 8th day after initiation of administration, once intravenously, volume on day of administration = 1.0, average ± SD
# Source text: Tumor of mouse colon cancer, Colon26, maintained by subcutaneous subculture in mice, was minced into about 2-mm square blocks, and the blocks were transplanted subcutaneously on the dorsal part of a mouse using a trocar. On the 7th day after tumor transplantation, the compound of Example 5 dissolved in a 5% glucose injection solution and gemcitabine hydrochloride as a control drug dissolved in physiological saline were respectively administered once intravenously at the doses indicated in Table 2. The tumor volumes on the day of initiation of administration and on the 8th day after the initiation of administration were calculated by the following equation, and the relative tumor volumes on the day of initiation of administration and on the 8th day after the initiation of administration were determined.
structure (smiles),measurement,setting,value
"Nc1ccn([C@@H]2O[C@H](CO)[C@@H](O)C2(F)F)c(=O)n1 [Control drug, gemcitabine hydrochloride]",Relative tumor volume *,[1]; 7th day after initiation of administration,1.5 ± 1.5
same,Relative tumor volume **,[1]; 26th day after initiation of administration,25.8 ± 36.0
same,Relative tumor volume,[2]; dose 40 mg/kg in terms of gemcitabine hydrochloride,5.3 ± 1.1
same,Relative tumor volume,[2]; dose 200 mg/kg in terms of gemcitabine hydrochloride,4.8 ± 1.7
